In patent US4650801A, “Anti-cancer compositions for delivering 5-fluorouracil” (Taiho Pharmaceutical Company, Ltd., priority 1978, dated 1987):
“And” between values parts separate entries of the source, which are not always exact repeats. Equal entries are not always repeated. Where two headings read alike, the source gives them in different places.

What was measured:
AH 130 tumor = details: rat, in vivo
Method: ^3H-FT- 207(300 μ Ci/Kg) with cytosine were suspended in 5% acasia solution and administered orally to AH 130 bearing rats through a stomach tube, each of 3 rats/group. […] The rat were sacrified at various periods, the tumors were removed and used for analysis. Tumor were homogenized in a equal volume of saline, 1.0 ml of each sample was suspended in 7 volumes of cold methanol and centrifuged at 3000 rpm for 10 min. The precipitate was washed twice with 2 volumes of cold methanol and the mixture was centrifuged. The supernatant was combined with first supernatant and dried under nitrogen. […] Samples were mixed with 10 ml of scintillator containing 4 g of 2,5-diphenyloxazole, 0.4 g of 1,4-bis-[2-(4-methyl-5-phenyloxazolyl)]benzene and 100 g of naphthalene per liter of solvent composed of dioxane: toluene: ethylcellosolve=15:3:2 (v/v/v), and the radio activity was measured with Aloka LSC 673 liquid scintillation spectrometor.

sarcoma 180 = test: Anti-cancer effect on subcutaneously transplanted sarcoma 180 in mice; format: in vivo, mouse
Method: The anti-cancer compositions of this invention are tested in mice by the following methods to determine acute toxicity, anti-cancer effect and therapeutic index
Tissues of sarcoma 180, 2×10^6, are subcutaneously transplanted in the back of male mice of ICR strain (6 mice in each group). A 5-fluorouracil (a) and uracil derivative (b) in the proportions listed in Tables 1-16 are suspended in a 5% solution of gum arabic to prepare a suspension. Twenty-four hours after the transplantation and during the following seven consecutive days the suspension is orally given to the animal once every day. On the 10th day after the transplantation, the tumor is removed from the body and weighed to calculate the average weight (T) of the tumors in the group to which the composition has been given and the corresponding weight (C) in the control group to determine the ratio T/C.

[1] = oral anti-cancer agent; cited from earlier work
[2] = cited from earlier work

Which “Concentration of 5-FU in cancer tissues” value (AH 130 tumor; 60 min) does the source give for Nc1ccn([C@H]2C[C@H](O)[C@@H](CO)O2)c(=O)n1 [2'-Deoxycytidine] here?
The value was 0.000 µg/mL.

What about the “Concentration of 5-FU in cancer tissues” value (AH 130 tumor; 120 min) of the same compound?
Its value is 0.000 µg/mL.

And the “Concentration of 5-FU in cancer tissues” value (AH 130 tumor; 240 min)?
The value was 0.000 µg/mL.

And the “Concentration of 5-FU in cancer tissues” value (AH 130 tumor; 480 min)?
The value was 0.000 µg/mL.

For O=c1[nH]c(=O)n(C2CCCO2)cc1F (stereo not drawn) [Compound 5, 1-(2-Tetrahydrofuryl)-5-fluorouracil], which ED50 (sarcoma 180; (b) = 1(2-Tetrahydrofuryl)uracil, (b)/(a) mol ratio 1) is on record?
Its ED50 is 99 mg/kg.

And the ED50 (sarcoma 180; (b) = 1(2-Tetrahydrofuryl)uracil, (b)/(a) mol ratio 2)?
The ED50 was 38 mg/kg.

What about the ED50 (sarcoma 180; (b) = 1(2-Tetrahydrofuryl)uracil, (b)/(a) mol ratio 10) of the same compound?
The ED50 was 34 mg/kg.

What about the ED50 (sarcoma 180; (b) = 1Acetyluracil, (b)/(a) mol ratio 1) of the same compound?
Its ED50 is 49 mg/kg.

And the ED50 (sarcoma 180; (b) = 1Acetyluracil, (b)/(a) mol ratio 2)?
Its ED50 is 31 mg/kg.

And the ED50 (sarcoma 180; (b) = 1Acetyluracil, (b)/(a) mol ratio 5)?
Its ED50 is 16 mg/kg.

And the ED50 (sarcoma 180; (b) = 1Cyclohexylcarbamoyluracil, (b)/(a) mol ratio 0.5)?
Its ED50 is 113 mg/kg.

And the ED50 (sarcoma 180; (b) = 1Cyclohexylcarbamoyluracil, (b)/(a) mol ratio 2)?
Its ED50 is 55 mg/kg.

And the ED50 (sarcoma 180; (b) = 1Cyclohexylcarbamoyluracil, (b)/(a) mol ratio 5)?
Its ED50 is 36 mg/kg.

What about the ED50 (sarcoma 180; (b) = 1n-Hexylcarbamoyluracil, (b)/(a) mol ratio 0.5) of the same compound?
Its ED50 is 112 mg/kg.

What about the ED50 (sarcoma 180; (b) = 1n-Hexylcarbamoyluracil, (b)/(a) mol ratio 2) of the same compound?
The ED50 was 52 mg/kg.

What about the ED50 (sarcoma 180; (b) = 1n-Hexylcarbamoyluracil, (b)/(a) mol ratio 10) of the same compound?
Its ED50 is 43 mg/kg.

What about the ED50 (sarcoma 180; (b) = 2'-Deoxycytidine, (b)/(a) mol ratio 1) of the same compound?
The ED50 was 102 mg/kg.

And the ED50 (sarcoma 180; (b) = 2'-Deoxycytidine, (b)/(a) mol ratio 2)?
The ED50 was 69 mg/kg.

And the ED50 (sarcoma 180; (b) = 2'-Deoxycytidine, (b)/(a) mol ratio 20)?
Its ED50 is 39 mg/kg.

What about the ED50 (sarcoma 180; (b) = 2'-Deoxyuridine, (b)/(a) mol ratio 0.5) of the same compound?
The ED50 was 82 mg/kg.

What about the ED50 (sarcoma 180; (b) = 2'-Deoxyuridine, (b)/(a) mol ratio 2) of the same compound?
The ED50 was 37 mg/kg.

And the ED50 (sarcoma 180; (b) = 2'-Deoxyuridine, (b)/(a) mol ratio 10)?
The ED50 was 28 mg/kg.

What about the ED50 (sarcoma 180; (b) = 3Benzoyluracil, (b)/(a) mol ratio 1) of the same compound?
The ED50 was 98 mg/kg.

And the ED50 (sarcoma 180; (b) = 3Benzoyluracil, (b)/(a) mol ratio 2)?
The ED50 was 37 mg/kg.

And the ED50 (sarcoma 180; (b) = 3Benzoyluracil, (b)/(a) mol ratio 10)?
Its ED50 is 30 mg/kg.

And the ED50 (sarcoma 180; (b) = 5Bromo-2'-deoxyuridine, (b)/(a) mol ratio 1)?
The ED50 was 54 mg/kg.

What about the ED50 (sarcoma 180; (b) = 5Bromo-2'-deoxyuridine, (b)/(a) mol ratio 2) of the same compound?
The ED50 was 24 mg/kg.

And the ED50 (sarcoma 180; (b) = 5Bromo-2'-deoxyuridine, (b)/(a) mol ratio 10)?
The ED50 was 17 mg/kg.

And the ED50 (sarcoma 180; (b) = 5Bromouracil, (b)/(a) mol ratio 1)?
The ED50 was 55 mg/kg.

And the ED50 (sarcoma 180; (b) = 5Bromouracil, (b)/(a) mol ratio 2)?
The ED50 was 26 mg/kg.

What about the ED50 (sarcoma 180; (b) = 5Bromouracil, (b)/(a) mol ratio 10) of the same compound?
The ED50 was 23 mg/kg.

And the ED50 (sarcoma 180; (b) = 5Iodouracil, (b)/(a) mol ratio 1)?
Its ED50 is 32 mg/kg.

And the ED50 (sarcoma 180; (b) = 5Iodouracil, (b)/(a) mol ratio 2)?
Its ED50 is 17 mg/kg.

What about the ED50 (sarcoma 180; (b) = 5Iodouracil, (b)/(a) mol ratio 5) of the same compound?
The ED50 was 12 mg/kg.

And the ED50 (sarcoma 180; (b) = Cytidine, (b)/(a) mol ratio 1)?
Its ED50 is 98 mg/kg.

And the ED50 (sarcoma 180; (b) = Cytidine, (b)/(a) mol ratio 2)?
Its ED50 is 70 mg/kg.

And the ED50 (sarcoma 180; (b) = Cytidine, (b)/(a) mol ratio 20)?
Its ED50 is 28 mg/kg.

What about the ED50 (sarcoma 180; (b) = Cytosine, (b)/(a) mol ratio 1) of the same compound?
Its ED50 is 108 mg/kg.

What about the ED50 (sarcoma 180; (b) = Cytosine, (b)/(a) mol ratio 2) of the same compound?
The ED50 was 66 mg/kg.

What about the ED50 (sarcoma 180; (b) = Cytosine, (b)/(a) mol ratio 20) of the same compound?
Its ED50 is 27 mg/kg.

And the ED50 (sarcoma 180; (b) = Orotic acid, (b)/(a) mol ratio 1)?
Its ED50 is 112 mg/kg.

And the ED50 (sarcoma 180; (b) = Orotic acid, (b)/(a) mol ratio 2)?
Its ED50 is 72 mg/kg.

What about the ED50 (sarcoma 180; (b) = Orotic acid, (b)/(a) mol ratio 20) of the same compound?
The ED50 was 59 mg/kg.

What about the ED50 (sarcoma 180; (b) = Thymidine, (b)/(a) mol ratio 2) of the same compound?
Its ED50 is 94 mg/kg.

What about the ED50 (sarcoma 180; (b) = Thymidine, (b)/(a) mol ratio 5) of the same compound?
Its ED50 is 42 mg/kg.

What about the ED50 (sarcoma 180; (b) = Thymidine, (b)/(a) mol ratio 10) of the same compound?
The ED50 was 40 mg/kg.

And the ED50 (sarcoma 180; (b) = Thymine, (b)/(a) mol ratio 1)?
Its ED50 is 42 mg/kg.

And the ED50 (sarcoma 180; (b) = Thymine, (b)/(a) mol ratio 2)?
The ED50 was 28 mg/kg.

What about the ED50 (sarcoma 180; (b) = Thymine, (b)/(a) mol ratio 10) of the same compound?
Its ED50 is 14 mg/kg.

What about the ED50 (sarcoma 180; (b) = Uridine, (b)/(a) mol ratio 0.5) of the same compound?
Its ED50 is 129 mg/kg.

What about the ED50 (sarcoma 180; (b) = Uridine, (b)/(a) mol ratio 2) of the same compound?
Its ED50 is 55 mg/kg.

What about the ED50 (sarcoma 180; (b) = Uridine, (b)/(a) mol ratio 10) of the same compound?
The ED50 was 36 mg/kg.

And the ED50 (sarcoma 180; (b)/(a) mol ratio 0 (alone), oral, 50% cancer inhibition (T/C))?
Its ED50 is 140 mg/kg and 134 mg/kg.

What about the “efficacy compared with 5-fluorouracil” value [1] of the same compound?
The value was “somewhat inferior to 5-fluorouracil in efficacy”.

And the “conversion to 5-fluorouracil in vivo” value [2]?
The value was “slowly converted to 5-fluorouracil in vivo”.

With Nc1cc[nH]c(=O)n1 [Cytosine] as the compound, how does the “Concentration of 5-FU in cancer tissues” value (AH 130 tumor; 60 min) read?
The value was 0.000 µg/mL.

What about the “Concentration of 5-FU in cancer tissues” value (AH 130 tumor; 120 min) of the same compound?
Its value is 0.000 µg/mL.

What about the “Concentration of 5-FU in cancer tissues” value (AH 130 tumor; 240 min) of the same compound?
The value was 0.000 µg/mL.

What about the “Concentration of 5-FU in cancer tissues” value (AH 130 tumor; 480 min) of the same compound?
Its value is 0.000 µg/mL.

With O=c1c(F)cn(C2CCCO2)c(=O)n1C1CCCO1 (stereo not drawn) [FD-1] as the compound, how does the “Concentration of 5-FU in cancer tissues” value (AH 130 tumor; 60 min) read?
Its value is 0.033 µg/mL.

And the “Concentration of 5-FU in cancer tissues” value (AH 130 tumor; 120 min)?
Its value is 0.024 µg/mL.

What about the “Concentration of 5-FU in cancer tissues” value (AH 130 tumor; 240 min) of the same compound?
Its value is 0.011 µg/mL.

What about the “Concentration of 5-FU in cancer tissues” value (AH 130 tumor; 480 min) of the same compound?
The value was 0.008 µg/mL.
